This is an account of results in publication PMC3572379, “Pharmacokinetic and pharmacodynamic effects of comedication of clopidogrel and dabigatran etexilate in healthy male volunteers” (European Journal of Clinical Pharmacology, 2012).

Marks after values point to notes of the source that are not given here.

The nature of data set [1]: Plasma pharmacokinetics (HPLC-MS/MS) in open-label drug–drug interaction trial. To be noted: male, human, in vivo, po. As to the method:
The treatment phase was divided into three separate parts, each with a different set of subjects. Part 1 (pilot study) was an open-label, multiple-dose (for dabigatran etexilate) and single-dose (for clopidogrel), fixed-sequence study. A single dose of clopidogrel 300 mg was given in addition to dabigatran etexilate 150 mg bid in steady state (Table 1). Part 2 (main study) was a randomized, open-label, multiple-dose, crossover study, with three periods of up to 5 days separated by washout periods of at least 14 days. The test treatment consisted of a clopidogrel 300 mg loading dose on day 1, followed by a 75 mg dose on day 2, then clopidogrel 75 mg qd in combination with dabigatran etexilate 150 mg bid on days 3–5 (Table 1). Part 3 (main study) was an open-label, multiple-dose (for dabigatran etexilate) and single-dose (for clopidogrel), fixed-sequence study. A single dose of clopidogrel 600 mg was given alone or in addition to dabigatran 150 mg bid at steady state (Table 1).
Although there are no reported interactions of food with dabigatran etexilate or clopidogrel, the morning medication was administered with about 240 mL of water following an overnight fast of at least 10 h, and no food was allowed until 4 h after drug administration. According to the twice-daily regimen dabigatran etexilate was similarly administered again 12 h later. Subjects were not allowed to lie down during the 2 h following drug administration, and water was limited for 1 h before and after drug administration. On dosing days a light non-standardized breakfast was given 1 h after morning drug administration. On profile days, no food was given until 4 h after administration. No concomitant therapy was allowed during the study, except for prophylactic thyroid hormone replacement and for symptomatic therapy of adverse events (AEs) in need of treatment.
For PK parameter evaluations, blood samples were taken for the determination of plasma concentrations of free, nonconjugated dabigatran, total dabigatran (after alkaline cleavage of conjugates), and the prodrug dabigatran etexilate, and of clopidogrel and SR26334.
Blood samples were taken before and at specified intervals up to 24 h after the morning clopidogrel dose, and before and up to 24 h after the morning and evening dabigatran etexilate dose. Timings of PK/PD sampling are shown in Supplementary Table 1.
Blood samples (∼2.7 mL for dabigatran and ∼4.0 mL for clopidogrel) were collected into tubes containing potassium ethylenediaminetetraacetic acid for PK analysis. Samples were centrifuged, and the resulting plasma samples were separated and stored at −70°C or below.
Plasma concentrations of free, nonconjugated dabigatran; total dabigatran (sum of free and conjugated dabigatran measured after alkaline cleavage of conjugates); the prodrug dabigatran etexilate; clopidogrel; and SR26334 were determined by validated high-performance liquid chromatography tandem mass spectrometry (HPLC-MS/MS) at AAI Pharma Deutschland (Neu-Ulm, Germany). The calibration curves for free and total dabigatran covered a range from 1.00 to 400 ng/mL plasma in undiluted samples. […] Maximum imprecision and inaccuracy for quality control samples at concentrations of 3, 30, and 320 ng/mL were 6.62 and +5.86%, respectively. For the prodrug, maximum imprecision and inaccuracy were 6.63 and +2.83%, respectively.
Calibration curves for clopidogrel and SR26334 covered concentration ranges of 0.01–10 ng/mL and 0.02–20 μg/mL, respectively, with an inaccuracy generally below 4% and imprecision below 9%. For blood coagulation parameters aPTT, ECT, and TT (PD analyses), ∼3 mL of blood were collected in sodium citrate monovettes at the time points indicated for PK analyses. The blood samples were centrifuged, frozen, and stored at −20°C or below.

The subject of data set [2] is blood coagulation parameters (aPTT, ECT, TT). Kind of data set: Blood coagulation parameters aPTT, ECT and TT (anti-factor IIa). The data set is classed as in vivo, healthy male subjects. To be noted: part 2; DE given alone or in combination with clopidogrel. Here is the method: The secondary endpoints included other PK parameters and the effects of clopidogrel on the PD of dabigatran assessed by ECT, aPTT, TT (including maximum effect ratio, ERmax) as well as the CBT.
Calibration curves for clopidogrel and SR26334 covered concentration ranges of 0.01–10 ng/mL and 0.02–20 μg/mL, respectively, with an inaccuracy generally below 4% and imprecision below 9%. For blood coagulation parameters aPTT, ECT, and TT (PD analyses), ∼3 mL of blood were collected in sodium citrate monovettes at the time points indicated for PK analyses. The blood samples were centrifuged, frozen, and stored at −20°C or below. The aPTT, ECT, and TT parameters were analyzed on an MC10PLUS coagulometer using validated methods by BiochemA, Riegel, Germany. aPTT was measured using a kit from Roche Diagnostics (Mannheim, Germany) according to manufacturer’s instructions, and the ECT assay utilized ecarin from Pentapharm (Basel, Switzerland). Thrombin inhibition (TT), anti-factor IIa, was measured by the Hemoclot Thrombin Inhibitors Assay® (Hemoclot® TT #CK002K, HYPHEN BioMed, Neuville-sur-Oise, France) according to the manufacturer’s instructions. The Hemoclot kit was used for the quantitative measurement of direct thrombin inhibitors in plasma, with a clotting method based on the inhibition of a constant and defined concentration of thrombin.
AUEC and ERmax of aPTT, ECT, and TT as well as CBT, and safety and tolerability were assessed descriptively as secondary parameters.

The conditions of data set [3]: cited from earlier work.

Take `COC(=O)[C@H](c1ccccc1Cl)N1CCc2sccc2C1` [Clopidogrel, clopidogrel]: in data set [1] (75 mg), the “AUCτ,ss, gMean” value is given as 1400^b pg·h/mL and the “Cmax,ss, gMean” value stood at 0.625 ng/mL. In data set [1] (600 mg), the “AUC0-24, gMean” value came out at 10.574 ng·h/mL; the “CL/Fss, gMean” value worked out at 911000 mL/min; the “Cmax, gMean” value was determined as 4.013 ng/mL. For the same molecule, the “effect on dabigatran PK/PD relationship (TT, ECT, aPTT vs plasma concentration)” value in data set [2] is listed as “No effect”. In addition, the “bleeding time, overall least square means” value in data set [3] is recorded as 1.96 times baseline.
